Laboratory results from patent US20050238634A1, “Method, compositions and kits for increasing the oral bioavailability of pharmaceutical agents” (Baker Norton Pharmaceuticals, Inc., priority 1995, published 2005).
Like-named read-outs stand apart in the source and are kept apart here. Each block holds one molecule with its values, some of them ahead of it.

Experiments:
[1] = reports in the literature; cited from earlier work
[2] = 3H-etoposide IV, oral, oral with cyclosporin in rats, whole blood radioactivity (Example 6, NP960102); assay type: in vivo
[3] = etoposide capsules; cited from earlier work
[4] = male, Sprague-Dawley, rat, in vivo
[5] = Repeated oral co-administration of paclitaxel with CsA, plasma levels; assay type: in vivo, rats; settings: repeated regimen
[6] = not given; remark: listed apart in the source
in vivo = settings: Sprague Dawley, rat
[7] = Sprague Dawley, rat, in vivo
metastatic breast cancer = settings: continuous 96-hour infusion every three weeks; taxane-failure patients; cited from earlier work
[8] = Sprague Dawley, rat, in vivo; remark: listed apart in the source
[9] = not given; remark: listed apart in the source
[10] = oral; cited from earlier work
[11] = oral 3H-paclitaxel 9 mg/kg, cyclosporin dose 2 × 5 mg/kg oral
[12] = radioactivity of oral 3H-paclitaxel 9 mg/kg, cyclosporin dose 2 × 5 mg/kg oral
[13] = Grp C, etoposide 1/PO with CsA 5/PO before and with
[14] = Sprague Dawley, rat, in vivo, po
[15] = Sprague Dawley, rat, in vivo, po, 9 mg/kg
[16] = total radioactivity, Paclitaxel IV 9 mg/kg

Molecule: C/C=C/C[C@@H](C)[C@@H](O)[C@H]1C(=O)N[C@@H](C(C)C)C(=O)N(C)CC(=O)N(C)[C@@H](CC(C)C)C(=O)N[C@@H](C(C)C)C(=O)N(C)[C@@H](CC(C)C)C(=O)N[C@@H](C)C(=O)N[C@H](C)C(=O)N(C)[C@@H](CC(C)C)C(=O)N(C)[C@@H](CC(C)C)C(=O)N(C)[C@@H](C(C)C)C(=O)N1C [Cyclosporin D, cyclosporin D]
immunosuppressive activity [1]: least immunosuppressive activity

Molecule: C/C=C/C[C@@H](C)[C@@H](OC(C)=O)[C@H]1C(=O)N[C@@H](CC)C(=O)N(C)CC(=O)N(C)[C@@H](CC(C)C)C(=O)N[C@@H](C(C)C)C(=O)N(C)[C@@H](CC(C)C)C(=O)N[C@@H](C)C(=O)N[C@H](C)C(=O)N(C)[C@@H](CC(C)C)C(=O)N(C)[C@@H](CC(C)C)C(=O)N(C)[C@@H](C(C)C)C(=O)N1C [Cyclosporin Acetyl A, acetyl cyclosporin A]
% Absorption [11]: 25.4%
AUC0-24 [12]: 8.39 μg eq. hr/ml

Cmax ([2]; Grp A, etoposide only 1/IV): 2.16 ug*eq/mL
t½ ([2]; Grp A, etoposide only 1/IV): 26.5 h
AUC0-24 ([2]; Grp A, etoposide only 1/IV, total radioactivity): 1080 ng·h/mL
AUC0-24 ([2]; Grp B, etoposide only 1/PO): 610 ng·h/mL
Cmax ([2]; Grp B, etoposide only 1/PO): 0.03 ug*eq/mL
F % ([2]; Grp B, etoposide only 1/PO): 56.5%
t½ ([2]; Grp B, etoposide only 1/PO): 19.1 h
AUC0-24 [2, 13]: 1040 ng·h/mL
Cmax [2, 13]: 0.12 ug*eq/mL
F % [2, 13]: 96.3%
t½ [2, 13]: 18.1 h
F % ([2]; Grp C, etoposide 1/PO with CsA 5/PO before and with, listed as etoposide): about 96%
Molecule: COc1cc([C@@H]2c3cc4c(cc3[C@@H](O[C@@H]3O[C@@H]5CO[C@@H](C)O[C@H]5[C@H](O)[C@H]3O)[C@H]3COC(=O)[C@H]23)OCO4)cc(OC)c1O [Etoposide, etoposide]
mean value of oral bioavailability [3]: approximately 50%

Molecule: C/C=C/C[C@@H](C)[C@@H](O)[C@H]1C(=O)N[C@@H]([C@@H](C)O)C(=O)N(C)CC(=O)N(C)[C@@H](CC(C)C)C(=O)N[C@@H](C(C)C)C(=O)N(C)[C@@H](CC(C)C)C(=O)N[C@@H](C)C(=O)N[C@H](C)C(=O)N(C)[C@@H](CC(C)C)C(=O)N(C)[C@@H](CC(C)C)C(=O)N(C)[C@@H](C(C)C)C(=O)N1C [Cyclosporin C, cyclosporin C]
% Absorption [11]: 34.5%
AUC0-24 [12]: 11.39 μg eq. hr/ml

t½ [4]: 20.0 h
Molecule: CC(=O)[C@H]1CC[C@H]2[C@@H]3CCC4=CC(=O)CC[C@]4(C)[C@H]3CC[C@]12C [Progesterone, progesterone]

Molecule: CCCC[C@@H](C)[C@@H](O)[C@H]1C(=O)N[C@@H](CC)C(=O)N(C)CC(=O)N(C)[C@@H](CC(C)C)C(=O)N[C@@H](C(C)C)C(=O)N(C)[C@@H](CC(C)C)C(=O)N[C@@H](C)C(=O)N[C@H](C)C(=O)N(C)[C@@H](CC(C)C)C(=O)N(C)[C@@H](CC(C)C)C(=O)N(C)[C@@H](C(C)C)C(=O)N1C [Cyclosporin Dihydro A, dihydro cyclosporin A]
AUC0-24 [12]: 8.5 μg eq. hr/ml

t½ [4]: 9.23 h
Molecule: CC(=O)N1CCN(c2ccc(OCC3COC(Cn4ccnc4)(c4ccc(Cl)cc4Cl)O3)cc2)CC1 (centres unmarked) [Ketoconazole, ketoconazole]

t½ [4]: 23.1 h
Molecule: CC(=O)O[C@]1(C(C)=O)CC[C@H]2[C@@H]3C=C(C)C4=CC(=O)CC[C@]4(C)[C@H]3CC[C@@]21C [Magace, megestrol acetate]

Molecule: C/C=C/C[C@@H](C)[C@@H](O)[C@H]1C(=O)N[C@@H](CCC)C(=O)N(C)CC(=O)N(C)[C@@H](CC(C)C)C(=O)N[C@@H](C(C)C)C(=O)N(C)[C@@H](CC(C)C)C(=O)N[C@@H](C)C(=O)N[C@H](C)C(=O)N(C)[C@@H](CC(C)C)C(=O)N(C)[C@@H](CC(C)C)C(=O)N(C)[C@@H](C(C)C)C(=O)N1C [Cyclosporin G, cyclosporin G]
% Absorption [11]: 40.0%
AUC0-24 [12]: 13.22 μg eq. hr/ml

Molecule: C/C=C/C[C@@H](C)C[C@H]1C(=O)N[C@@H](CC)C(=O)N(C)CC(=O)N(C)[C@@H](CC(C)C)C(=O)N[C@@H](C(C)C)C(=O)N(C)[C@@H](CC(C)C)C(=O)N[C@@H](C)C(=O)N[C@H](C)C(=O)N(C)[C@@H](CC(C)C)C(=O)N(C)[C@@H](CC(C)C)C(=O)N(C)[C@@H](C(C)C)C(=O)N1C [Cyclosporin F, cyclosporin F]
AUC0-24 (oral 3H-paclitaxel 9 mg/kg, cyclosporin dose 2 × 10 mg/kg oral): 11.99 μg eq. hr/ml
AUC0-24 [12]: 8.99 μg eq. hr/ml
activity in promoting oral absorption of paclitaxel (whole blood radioactivity profiles, 5 mg/kg oral before and with paclitaxel 9 mg/kg): enhances the oral bioavailability of paclitaxel
immunosuppressive activity [1]: does not display immunosuppressive activity

t½ [4]: 26.6 h
Molecule: OCCN(CCO)c1nc(N2CCCCC2)c2nc(N(CCO)CCO)nc(N3CCCCC3)c2n1 [Dipyridamole, dipyridamole]

Molecule: CC(=O)O[C@H]1C(=O)[C@@]2(C)[C@H]([C@H](OC(=O)c3ccccc3)[C@]3(O)C[C@H](OC(=O)[C@H](O)[C@@H](NC(=O)c4ccccc4)c4ccccc4)C(C)=C1C3(C)C)[C@]1(OC(C)=O)CO[C@@H]1C[C@@H]2O [Paclitaxel, paclitaxel]
steady state plasma levels of paclitaxel achieved [5]: by the third day
AUC0-24 ([6]; NP951001, paclitaxel only 9/IV): 32.04 µg·h/mL
AUC0-24 ([6]; NP951001, paclitaxel only 9/PO): 3.24 µg·h/mL
% Dose in urine (4-24 hr) ([6]; Sprague Dawley, rat, in vivo, iv): 2.2%
% Dose in urine (4-24 hr) [6, 14]: 1.9%
AUC0-24 [6, 14]: 3.2 μg eq × hr/ml
Tmax [6, 14]: 25 h
AUC0-24 ([6]; total radioactivity in blood, IV (A)): 32.8 μg eq × hr/ml
bioavailability (in vivo; in vivo, po): < 1%
AUC(0-t) (in vivo; serum, oral, 9 mg/kg): 80 ng·h/mL
V ([7]; iv): 4.236 L/kg
AUC0-[…] ([7]; po): 349 ng·h/mL
F % ([7]; po): 1.7%
V ([7]; po): 5.029 L/kg
response rate (metastatic breast cancer): 27%
Absolute F [8]: 0.9%
F (%) Based on AUC0-00 [9, 14]: 16.4%
F (%) based on AUC0-24 hr [9, 14]: 5.9%
AUC0-00 [9, 15]: 4.5 μg equiv. hr/mL
AUC0-24 hr [9, 15]: 1.4 μg equiv. hr/mL
AUC0-00 [9, 16]: 27.4 μg equiv. hr/mL
AUC0-24 hr [9, 16]: 23.8 μg equiv. hr/mL
absorbed when administered orally [10]: less than 1%

Molecule: C/C=C/C[C@@H](C)[C@@H](O)[C@H]1C(=O)N[C@@H](CC)C(=O)N(C)CC(=O)N(C)[C@@H](CC(C)C)C(=O)N[C@@H](C(C)C)C(=O)N[C@@H](CC(C)C)C(=O)N[C@@H](C)C(=O)N[C@H](C)C(=O)N(C)[C@@H](CC(C)C)C(=O)N(C)[C@@H](CC(C)C)C(=O)N(C)[C@@H](C(C)C)C(=O)N1C [Cyclosporin U, cyclosporin U]
% Absorption [11]: 15.2%
AUC0-24 [12]: 5.02 μg eq. hr/ml

Molecule: dihydro cyclosporin C [Cyclosporin Dihydro C]
% Absorption [11]: 45.1%
AUC0-24 [12]: 13.09 μg eq. hr/ml
